The values below come from patent publication US20220277805A1, “GENETIC MUTATIONAL ANALYSIS” (BioSkryb Genomics, Inc., priority 2019, published 2022).

“Also recorded” adds a separate entry of the source.

The test system of data set [1] is clone harboring an activating KRAS mutation. The data set is described as follows: leukemia cells in culture exposed to standard ALL chemotherapy drugs, bulk sequencing of clones. The class given is cell-based. Conditions: FIG. 7. An excerpt:
Given such a massive population genetic diversity, it has been hypothesized that there are clones that are more resistant to treatment within a given patient. To test that hypothesis, the sample is placed in culture and the leukemia cells are exposed to increasing concentrations of standard ALL chemotherapy drugs. […] This approach also employed bulk sequencing of the treated samples. The use of single-cell DNA sequencing in some instances allows a determination of the diversity and clonotypes of the expanding populations.

In another data set the test system is cord blood CD34+ cells. The data set is described as follows: direct measurement of environmental mutagenicity (DMEM), single-cell PTA sequencing. It counts as cell-based, human. Particulars: for enrichment of cytosine variants in DNase I hypersensitivity sites: compared to DH sites of CD34+ cells, Roadmap Epigenomics Project, FIG. 12D, 12E. From the text:
PTA was used to conduct a novel mutagenicity assay that provides a framework for performing high-resolution, genome wide human toxicogenomics studies. Previous studies such as the Ames test, relies on bacterial genetics to make measurements that are assumed to be representative of human cells while only providing limited information on the mutation number and patterns induced in each exposed cell. To overcome these limitations, a human mutagenesis system “direct measurement of environmental mutagenicity (DMEM)” was developed, wherein single human cells was exposed to an environmental compound, isolated as single cells, and subjected to single-cell sequencing to identify the new mutations induced in each cell.
Umbilical cord blood cells that express the stem/progenitor marker CD34 were exposed to increasing concentrations of the direct mutagen N-ethyl-N-nitrosourea (ENU).
ENU (CAS 759-73-9) and D-mannitol (CAS 69-65-8) were put into solution at their maximal solubility. Fresh anticoagulant-treated umbilical cord blood (CB) was obtained from St. Louis Cord Blood Bank. CB was diluted 1:2 with PBS and mononuclear cells (MNCs) were isolated by density gradient centrifugation on Ficoll-Paque Plus according to manufacturer's instructions. CB MNCs expressing CD34 were then immunomagnetically selected using the human CD34 microbead kit and magnetic cell sorting (MACS) system as per the manufacturer. Cell count and viability were assessed using the Luna FL cell counter. CB CD34+ cells were seeded at a density of 2.5×10^4 cells/mL in StemSpan SFEM supplemented with 1× CD34+ Expansion supplement, 100 units/mL of penicillin, and 100 ug/mL of streptomycin where they expanded for 96 hours before proceeding to mutagen exposure.
Expanded cord blood CD34+ cells were cultured in StemSpan SFEM supplemented with 1× CD34+ Expansion Supplement, 100 units/mL of penicillin, and 100 ug/mL of streptomycin. The cells were exposed to ENU at concentrations of 8.54, 85.4, and 854 uM, D-mannitol at 1152.8, and 11528 uM, or 0.9% sodium chloride (vehicle control) for 40 hours. Single-cell suspensions from drug-treated cells and vehicle control samples were harvested and stained for viability as described above. Single cell sorts were carried out as described above. PTA was performed and libraries were prepared using a simplified and improved protocol as per the general methods of the methods described herein, and Example 2.
Data acquired from cells in the DMEM experiments were trimmed using Trimmomatic, aligned to GRCh38 using BWA, and further processed using GATK 4.0.1 best practices without deviation from the recommended parameters. Genotyping was performed using HaplotypeCaller where joint genotypes were again filtered using standard parameters. […] The trinucleotide context of each SNV was determined by extracting the surrounding bases from the reference genome using bedtools. Mutation counts and context were visualized using ggplot2 and heatmap2 in R.
To determine whether mutations were enriched in DNase I hypersensitivity sites (DHS) in CD34+ cells, the proportion of SNVs in each sample that overlap with DHS sites from 10 CD34+ primary cell datasets produced by the Roadmap Epigenomics Project were calculated. DHS sites were extended by 2 nucleosomes, or 340 bases in either direction. Each DHS dataset was paired with a single cell sample where we determined the proportion of the human genome with at least 10× coverage in that cell which overlapped with a DHS, which was compared to the proportion of SNVs that were found within the covered DHS sites.

The subject of the next data set is mice. Particulars: limited sequencing of target genes; cited from earlier work.

Turning to `C[C@]12C=CC(=O)C=C1CC[C@@H]1[C@@H]2[C@@H](O)C[C@@]2(C)[C@H]1CC[C@]2(O)C(=O)CO` [prednisolone], in data set [1] (in culture with drug), the “response of the clone harboring an activating KRAS mutation” value (“response” below) is “more sensitive; also recorded: killed”.

As for asparaginase, in data set [1] (lowest dose), the “response” value is on record as “continued to expand”.

Consider `COc1cccc2c1C(=O)c1c(O)c3c(c(O)c1C2=O)C[C@@](O)(C(C)=O)C[C@@H]3O[C@H]1C[C@H](N)[C@H](O)[C@H](C)O1` [daunorubicin], for which the “response” value in data set [1] (in culture with drug) is given as “more sensitive; also recorded: killed”.

`CCN(N=O)C(N)=O` [ENU, N-ethyl-N-nitrosourea]: in the data set with cord blood CD34+ cells (FIG. 12B), the “most common mutations (base changes)” value was “T to A (A to T), T to C (A to G), and C to T (G to A)”. Moreover, the “enrichment in variant locations at DH sites” value with cord blood CD34+ cells (all ENU induced mutations, FIG. 12E) was “No significant enrichment in variant locations at DH sites”. Also, the “enrichment of cytosine variants in DNase I hypersensitivity sites” value in the data set on cord blood CD34+ cells was “no enrichment of cytosine variants in DNase I hypersensitivity sites was observed; also recorded: no enrichment of variants restricted to cytosines was observed in DH sites”; with cord blood CD34+ cells (listed as N-ethyl-N-nitrosourea) it was “No significant enrichment of cytosine variants was observed”. For the same molecule, the “mutation number of each cell” value in the data set on cord blood CD34+ cells (increasing ENU concentrations 8.54, 85.4, 854 uM, 40 hours, FIG. 12A) was “dose-dependent increase in mutation number of each cell”. Besides, the “enrichment of variants in genomic locations with specific annotations” value with cord blood CD34+ cells (relative to proportion of the genome each annotation comprises, FIG. 12F) is reported as “No specific enrichment”. Besides, the preferred base changes entry in the data set with mice is “T to A (A to T), T to C (A to G), and C to T (G to A)”.
